This note sets out measurements from US20070270400A1, “New compounds 303” (priority 2006, published 2007).

One data set has as its target T1, human NK3 receptor (Homo sapiens, UniProt P29371).
T1 construct: expressed in transfected cells
T1 sequence (P29371 1-465): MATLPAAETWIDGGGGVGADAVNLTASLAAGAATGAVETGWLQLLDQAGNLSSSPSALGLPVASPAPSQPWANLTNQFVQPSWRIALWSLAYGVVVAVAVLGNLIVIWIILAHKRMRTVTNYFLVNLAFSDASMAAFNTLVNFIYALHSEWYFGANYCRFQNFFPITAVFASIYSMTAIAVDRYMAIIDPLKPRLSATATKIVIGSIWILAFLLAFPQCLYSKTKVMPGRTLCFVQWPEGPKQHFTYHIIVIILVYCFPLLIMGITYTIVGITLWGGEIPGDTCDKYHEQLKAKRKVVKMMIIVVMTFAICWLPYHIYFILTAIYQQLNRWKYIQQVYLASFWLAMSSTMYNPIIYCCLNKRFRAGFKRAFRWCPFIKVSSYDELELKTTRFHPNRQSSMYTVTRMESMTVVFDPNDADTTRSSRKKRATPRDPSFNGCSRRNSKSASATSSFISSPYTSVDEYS
Nature of the data set: FLIPR assay, inhibition of human NK3 receptor activation (intracellular Ca2+). Format: cell-based. The following applies: CHO cells with human NK3 receptor, agonist Pro-7-NKB; pKB converted from IC50. Here is the method:
(§1) Chinese Hamster Ovary (CHO) K1 cells (obtained from ATCC) were stably transfected with the human NK2 receptor (hNK2R cDNA in pRc/CMV, Invitrogen) or the human NK3 receptor (hNK3R in pcDNA 3.1/Hygro (+)/IRES/CD8, Invitrogen vector modified at AstraZeneca EST-Bio UK, Alderley Park). The cells were transfected with the cationic lipid reagent LIPOFECTAMINE™ (Invitrogen) and selection was performed with Geneticin (G418, Invitrogen) at 1 mg/ml for the hNK2R transfected cells and with Hygromycin (Invitrogen) at 500 μg/ml for the hNK3R transfected cells. Single cell clones were collected by aid of Fluorescence Activated Cell Sorter (FACS), tested for functionality in a FLIPR assay (see below), expanded in culture and cryopreserved for future use. […]
(§2) The activity of a compound of the invention to inhibit NK1/NK2/NK3 receptor activation measured as NK1/NK2/NK3 receptor mediated increase in intracellular Ca^2+ was assessed by the following procedure:
(§3) CHO cells stably transfected with human NK1, NK2 or NK3 receptors were plated in black walled/clear bottomed 96-well plates (Costar 3904) at 3.5×10^4 cells per well and grown for approximately 24 h in normal growth media in a 37° C. […] The response was measured as the peak relative fluorescence after agonist addition and IC50s were calculated from ten-point concentration-response curves for each compound. […]

The target of another data set is T2, human NK1 receptor (Homo sapiens, UniProt P25103).
T2 construct: expressed in transfected cells; AstraZeneca R&D Wilmington), pRcCMV vector
Nature of the data set: FLIPR assay, inhibition of human NK1 receptor activation (intracellular Ca2+). As to conditions: CHO cells with human NK1 receptor, agonist Substance P; pKB converted from IC50. It is filed as cell-based. The procedure: as §1, §2, §3

The target of data set [1] is hERG-encoded potassium channel (Homo sapiens, UniProt Q12809). Kind of data set: Activity against hERG, planar-array-based voltage clamp. Format: cell-based. The source says: The activity of compounds according to formula I against the hERG-encoded potassium channel can be determined according to Kiss L, et al. Assay Drug Dev Technol. 1 (2003), 127-35: “High throughput ion-channel pharmacology: planar-array-based voltage clamp”.

The target in a further data set is T3, human NK2 receptor (Homo sapiens, UniProt P21452).
T3 construct: expressed in transfected cells
T3 sequence (P21452 1-398): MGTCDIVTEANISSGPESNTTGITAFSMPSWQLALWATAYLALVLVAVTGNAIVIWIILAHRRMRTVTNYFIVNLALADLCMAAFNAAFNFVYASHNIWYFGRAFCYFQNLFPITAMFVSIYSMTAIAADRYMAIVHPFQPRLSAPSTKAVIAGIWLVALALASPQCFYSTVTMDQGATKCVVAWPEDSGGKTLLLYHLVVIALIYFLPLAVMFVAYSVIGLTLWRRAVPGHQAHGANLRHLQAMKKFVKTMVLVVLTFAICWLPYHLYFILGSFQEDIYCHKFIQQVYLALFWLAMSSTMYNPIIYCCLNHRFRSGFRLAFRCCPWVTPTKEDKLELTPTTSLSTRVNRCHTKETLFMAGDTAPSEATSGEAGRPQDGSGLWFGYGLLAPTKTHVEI
Nature of the data set: FLIPR assay, inhibition of human NK2 receptor activation (intracellular Ca2+). Format: cell-based. The following applies: CHO cells with human NK2 receptor, agonist NKA; pKB converted from IC50. Here is the method: as §1, §2, §3

The target in the next data set is CYP3A4 (Homo sapiens, UniProt P08684). Nature of the data set: CYP3A4 inhibition according to Bapiro et al. Format: in vitro ADME. The procedure:
The IC50 values tested according to Bapiro et al; Drug Metab. Dispos. 29, 30-35 (2001) were generally greater than 15 μM.

Data set [2] in a line: Metabolic stability in liver microsomes (intrinsic clearance). It is filed as in vitro ADME. The following applies: human, pH 7.4, HLM. The procedure:
The rate of biotransformation can be measured as either metabolite(s) formation or the rate of disappearance of the parent compound. The experimental design involves incubation of low concentrations of substrate (usually 1.0 μM) with liver microsomes (usually 0.5 mg/ml) and taking out aliquotes at varying time points (usually 0, 5, 10, 15, 20, 30, 40 min.). The test compound is usually dissolved in DMSO. The DMSO concentration in the incubation mixture is usually 0.1% or less since more solvent can drastically reduce the activities of some CYP450s. Incubations are done in 100 mM potassium phosphate buffer, pH 7.4 and at 37° C. Acetonitrile or methanol is used to stop the reaction. The parent compound is analysed by HPLC-MS. From the calculated half-life, t1/2, the intrinsic clearance, Clint, is estimated by taking microsomal protein concentration and liver weight into account.

SMILES strings stand for the structures.

T2 sequence (P25103 whole entry): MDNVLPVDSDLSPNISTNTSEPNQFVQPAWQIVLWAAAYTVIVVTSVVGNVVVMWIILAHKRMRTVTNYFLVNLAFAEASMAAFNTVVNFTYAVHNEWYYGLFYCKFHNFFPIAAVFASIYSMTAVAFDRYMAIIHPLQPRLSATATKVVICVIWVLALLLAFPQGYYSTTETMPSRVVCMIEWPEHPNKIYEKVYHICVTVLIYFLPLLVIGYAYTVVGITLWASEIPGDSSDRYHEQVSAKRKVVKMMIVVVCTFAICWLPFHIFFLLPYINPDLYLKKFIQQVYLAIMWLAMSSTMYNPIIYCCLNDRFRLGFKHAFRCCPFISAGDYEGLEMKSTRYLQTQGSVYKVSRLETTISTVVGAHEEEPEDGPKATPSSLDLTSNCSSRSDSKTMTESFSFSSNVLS
Sequence of hERG-encoded potassium channel (Q12809 whole entry): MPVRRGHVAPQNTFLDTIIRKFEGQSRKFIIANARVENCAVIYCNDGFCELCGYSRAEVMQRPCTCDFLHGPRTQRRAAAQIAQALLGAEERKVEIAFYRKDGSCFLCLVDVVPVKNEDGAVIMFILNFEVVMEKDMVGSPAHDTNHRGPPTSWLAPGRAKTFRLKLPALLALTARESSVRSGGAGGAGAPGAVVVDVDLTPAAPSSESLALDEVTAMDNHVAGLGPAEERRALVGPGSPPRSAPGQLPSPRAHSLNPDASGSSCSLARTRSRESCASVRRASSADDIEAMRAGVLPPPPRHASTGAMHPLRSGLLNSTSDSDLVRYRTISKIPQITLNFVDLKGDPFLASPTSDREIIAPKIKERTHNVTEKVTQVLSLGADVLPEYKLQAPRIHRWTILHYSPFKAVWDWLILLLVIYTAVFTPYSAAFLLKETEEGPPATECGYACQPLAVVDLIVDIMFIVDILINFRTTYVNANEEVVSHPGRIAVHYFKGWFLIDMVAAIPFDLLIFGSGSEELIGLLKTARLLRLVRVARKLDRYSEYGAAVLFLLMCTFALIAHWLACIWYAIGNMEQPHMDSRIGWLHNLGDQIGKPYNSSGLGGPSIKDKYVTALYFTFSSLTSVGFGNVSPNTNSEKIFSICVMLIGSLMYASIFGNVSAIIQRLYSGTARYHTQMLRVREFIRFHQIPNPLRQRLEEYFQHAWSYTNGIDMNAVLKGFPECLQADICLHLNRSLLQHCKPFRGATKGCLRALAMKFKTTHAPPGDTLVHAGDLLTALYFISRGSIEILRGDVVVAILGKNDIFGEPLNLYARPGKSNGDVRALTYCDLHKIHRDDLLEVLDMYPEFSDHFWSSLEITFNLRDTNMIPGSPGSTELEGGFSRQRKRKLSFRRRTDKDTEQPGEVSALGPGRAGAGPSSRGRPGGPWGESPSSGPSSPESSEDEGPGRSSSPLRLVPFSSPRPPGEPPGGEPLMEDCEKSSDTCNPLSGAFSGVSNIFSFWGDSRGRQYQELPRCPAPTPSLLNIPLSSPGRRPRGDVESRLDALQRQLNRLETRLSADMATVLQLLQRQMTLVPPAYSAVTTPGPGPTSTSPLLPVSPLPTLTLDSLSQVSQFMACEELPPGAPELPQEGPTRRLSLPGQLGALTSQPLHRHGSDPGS
Sequence of CYP3A4 (P08684 whole entry): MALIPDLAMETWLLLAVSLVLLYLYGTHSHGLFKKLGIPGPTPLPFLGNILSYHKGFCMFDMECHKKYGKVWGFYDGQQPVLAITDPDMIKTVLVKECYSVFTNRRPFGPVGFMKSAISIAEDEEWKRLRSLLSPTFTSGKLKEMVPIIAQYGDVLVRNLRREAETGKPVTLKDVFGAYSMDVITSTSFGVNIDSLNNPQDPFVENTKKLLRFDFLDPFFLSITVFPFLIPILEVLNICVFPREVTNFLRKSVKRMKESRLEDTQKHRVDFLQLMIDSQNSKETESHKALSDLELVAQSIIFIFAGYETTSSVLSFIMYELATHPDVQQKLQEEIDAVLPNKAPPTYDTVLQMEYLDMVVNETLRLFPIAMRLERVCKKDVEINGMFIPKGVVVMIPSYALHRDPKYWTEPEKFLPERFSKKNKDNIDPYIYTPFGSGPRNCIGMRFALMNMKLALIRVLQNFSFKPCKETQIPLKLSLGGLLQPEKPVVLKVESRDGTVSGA

For the compound `CC(C)C(=O)N1CCN(C2CN(CC[C@H](CN(C)C(=O)c3cc(Cl)cc(C(F)(F)F)c3)c3ccc(F)cc3)C2)CC1` [Ex 2, 3-Chloro-N-{(2S)-2-(4-fluorophenyl)-4-[3-(4-isobutyrylpiperazin-1-yl)azetidin-1-yl]butyl}-N-methyl-5-(trifluoromethyl)benzamide], the Kb at human NK3 receptor is 63.1 nM; at human NK1 receptor it was 10 nM; at human NK2 receptor it was 31.6 nM. Besides, the half-maximal inhibitory concentration (IC50) in data set [1] was 6600 nM; against CYP3A4, 18300 nM. The intrinsic clearance (microsomal CLint) at 1 μM in data set [2] turned out to be 36 µL/min/mg.
